Where two headings read alike, the source gives them in different places.

What all share (assay type): biochemical
One assay concerns the target T1, human Lck enzyme (Homo sapiens, UniProt P06239).
T1 construct: purchased Carna Biosciences, Inc. 08-170
Put plainly: Lck enzyme inhibitory activity (time-resolved fluorometry, biotinylated peptide phosphorylation). The note with it: read-out: LCK_IC50. The method in brief:
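Readout pairs a europium cryptate-labelled anti-phosphotyrosine antibody with XL665-streptavidin, measured by time-resolved fluorescence. IC50 derived from percent inhibition against untreated controls.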

The next assay has as its target T2, human Src enzyme (Homo sapiens, UniProt P12931).
T2 construct: purchased Carna Biosciences, Inc. 08-173
Put plainly: Src enzyme inhibitory activity (time-resolved fluorometry, biotinylated peptide phosphorylation). Conditions: read-out: SRC_IC50. A digest of the protocol:
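Compounds were tested for blocking tyrosine phosphorylation of a biotinylated peptide substrate by recombinant human Src. Phosphorylated product was quantified by time-resolved fluorometry using europium cryptate and XL665 conjugates, and IC50 was calculated against the compound-free control.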

The target in another assay is T3, human Yes1 enzyme (Homo sapiens, UniProt P07947).
T3 construct: made in house
Put plainly: Yes1 enzyme inhibitory activity (time-resolved fluorometry, biotinylated peptide phosphorylation). The note with it: read-out: YES_IC50. A digest of the protocol: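 Inhibition was expressed against a compound-free control to give IC50, using TR-FRET read-out (Eu-cryptate anti-pTyr antibody, streptavidin-XL665).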

The mark [1] stands for this setting: biotinylated peptide phosphorylation.

T3 sequence (P07947 whole entry): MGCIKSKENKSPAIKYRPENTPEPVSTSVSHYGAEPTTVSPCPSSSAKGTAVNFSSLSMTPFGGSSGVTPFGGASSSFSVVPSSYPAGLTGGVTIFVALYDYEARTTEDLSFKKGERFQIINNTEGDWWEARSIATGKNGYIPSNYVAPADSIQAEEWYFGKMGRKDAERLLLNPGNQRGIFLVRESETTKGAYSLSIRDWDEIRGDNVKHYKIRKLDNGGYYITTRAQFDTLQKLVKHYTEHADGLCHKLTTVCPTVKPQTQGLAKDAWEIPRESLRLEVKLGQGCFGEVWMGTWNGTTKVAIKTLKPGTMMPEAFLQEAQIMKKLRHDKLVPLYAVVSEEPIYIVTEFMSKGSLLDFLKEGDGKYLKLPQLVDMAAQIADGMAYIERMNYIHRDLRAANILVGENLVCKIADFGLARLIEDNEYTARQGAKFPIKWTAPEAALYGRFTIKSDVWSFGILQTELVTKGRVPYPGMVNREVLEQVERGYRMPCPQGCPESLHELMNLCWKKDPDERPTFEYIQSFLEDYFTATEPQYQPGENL
T2 sequence (P12931 whole entry): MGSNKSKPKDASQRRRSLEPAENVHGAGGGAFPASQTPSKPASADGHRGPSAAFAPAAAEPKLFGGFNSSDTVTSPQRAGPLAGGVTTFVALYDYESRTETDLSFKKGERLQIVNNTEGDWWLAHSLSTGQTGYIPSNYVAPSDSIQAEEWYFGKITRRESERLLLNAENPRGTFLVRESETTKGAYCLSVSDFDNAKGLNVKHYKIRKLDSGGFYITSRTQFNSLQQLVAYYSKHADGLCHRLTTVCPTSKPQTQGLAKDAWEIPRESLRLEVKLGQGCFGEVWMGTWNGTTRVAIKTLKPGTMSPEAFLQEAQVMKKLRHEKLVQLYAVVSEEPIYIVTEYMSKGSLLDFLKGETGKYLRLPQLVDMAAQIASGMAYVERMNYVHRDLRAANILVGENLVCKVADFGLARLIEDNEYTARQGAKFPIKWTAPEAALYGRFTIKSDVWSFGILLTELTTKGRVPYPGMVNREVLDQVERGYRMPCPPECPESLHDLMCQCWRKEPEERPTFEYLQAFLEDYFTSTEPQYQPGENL
T1 sequence (P06239 whole entry): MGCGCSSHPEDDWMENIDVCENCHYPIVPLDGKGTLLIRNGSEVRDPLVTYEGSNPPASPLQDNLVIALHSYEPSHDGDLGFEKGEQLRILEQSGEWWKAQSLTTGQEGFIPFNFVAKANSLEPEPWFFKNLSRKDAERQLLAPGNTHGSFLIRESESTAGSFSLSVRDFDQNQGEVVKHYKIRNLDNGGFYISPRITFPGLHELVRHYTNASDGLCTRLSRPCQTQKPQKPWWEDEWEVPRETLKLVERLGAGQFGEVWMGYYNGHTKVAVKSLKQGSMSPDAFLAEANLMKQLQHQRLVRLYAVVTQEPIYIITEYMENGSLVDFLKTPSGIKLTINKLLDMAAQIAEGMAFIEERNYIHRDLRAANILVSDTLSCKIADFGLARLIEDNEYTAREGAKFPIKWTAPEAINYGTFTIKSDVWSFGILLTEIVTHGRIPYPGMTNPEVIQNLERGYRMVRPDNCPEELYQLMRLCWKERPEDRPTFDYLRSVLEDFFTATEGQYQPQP

As for `Cc1cc(Oc2ccccc2F)cc(F)c1-n1ncc(C(=O)c2cc3cc(OC(F)F)c(NC4CCN(S(C)(=O)=O)CC4)cc3[nH]2)c1N` [Example 4-23-012, [5-amino-1-[2-fluoro-4-(2-fluorophenoxy)-6-methylphenyl]pyrazol-4-yl]-[5-(difluoromethoxy)-6-[(1-methylsulfonylpiperidin-4-yl)amino]-1H-indol-2-yl]methanone], the IC50 at human Lck enzyme (setting [1]) is 31 nM; at human Src enzyme (setting [1]), 70 nM; at human Yes1 enzyme (setting [1]) it was 14 nM.
On to `Cc1cc2cc(C(=O)c3cnn(-c4ccc(Oc5ccccc5F)cc4C)c3N)[nH]c2cc1N1C(=O)NC2(CCN(Cc3ccccc3)CC2)C1=O` [Example 5-1-392, 3-[2-[5-amino-1-[4-(2-fluorophenoxy)-2-methylphenyl]pyrazole-4-carbonyl]-5-methyl-1H-indol-6-yl]-8-benzyl-1,3,8-triazaspiro[4.5] decane-2,4-dione], for which the IC50 was 14 nM on human Lck enzyme, 89 nM on human Src enzyme and 2.9 nM on human Yes1 enzyme.
For the compound `Nc1c(C(=O)c2cc3cc(F)c(NS(=O)(=O)C4CC4)cc3[nH]2)cnn1-c1c(Cl)cc(Oc2cccc(F)c2F)cc1Cl` [Example 5-1-026, N-[2-[5-amino-1-[2,6-dichloro-4-(2,3-difluorophenoxy)phenyl]pyrazole-4-carbonyl]-5-fluoro-1H-indol-6-yl] cyclopropanesulfonamide], the IC50 on human Lck enzyme was determined as 390 nM; at human Src enzyme it was 660 nM; on human Yes1 enzyme it was 64 nM.
As to `Cc1cc(Oc2ccccc2F)ccc1-n1ncc(C(=O)c2cc3cc(F)c(NS(=O)(=O)c4cccnc4)cc3[nH]2)c1N` [Example 5-1-489, N-[2-[5-amino-1-[4-(2-fluorophenoxy)-2-methylphenyl]pyrazole-4-carbonyl]-5-fluoro-1H-indol-6-yl]pyridine-3-sulfonamide], the IC50 at human Lck enzyme (setting [1]) is 49 nM; on human Src enzyme (setting [1]) it was 190 nM; at human Yes1 enzyme (setting [1]), 1.9 nM.
The like results for `Cc1cc(Oc2c(F)cccc2F)ncc1-n1ncc(C(=O)c2cc3cc(N4CCOCC4)c(NS(C)(=O)=O)cc3[nH]2)c1N` [Example 4-24-018, N-[2-[5-amino-1-[6-(2,6-difluorophenoxy)-4-methylpyridin-3-yl]pyrazole-4-carbonyl]-5-morpholin-4-yl-1H-indol-6-yl]methanesulfonamide] were, in that order, 27 nM, 91 nM and 2.6 nM.
`COc1cc2cc(C(=O)c3cnn(-c4cnc(Oc5c(F)cccc5F)cc4C)c3N)[nH]c2cc1NS(=O)(=O)CC(=O)N1CCCC1` [Example 4-10-017, N-[2-[5-amino-1-[6-(2,6-difluorophenoxy)-4-methylpyridin-3-yl]pyrazole-4-carbonyl]-5-methoxy-1H-indol-6-yl]-2-oxo-2-pyrrolidin-1-ylethanesulfonamide]: the IC50 on human Lck enzyme (setting [1]) came out at 11 nM; on human Src enzyme (setting [1]), 32 nM; on human Yes1 enzyme (setting [1]), 0.93 nM.
Take `CS(=O)(=O)Nc1cc2[nH]c(C(=O)c3cnn(-c4ccc(Oc5ccccc5F)cc4Cl)c3N)cc2cc1F` [Example 5-1-018, N-[2-[5-amino-1-[2-chloro-4-(2-fluorophenoxy)phenyl]pyrazole-4-carbonyl]-5-fluoro-1H-indol-6-yl]methanesulfonamide]: the figures for the IC50 on human Lck enzyme, on human Src enzyme and at human Yes1 enzyme were 33 nM, 110 nM and 2.2 nM, respectively.
In the case of `Cc1cc(Oc2ccccc2F)ccc1-n1ncc(C(=O)c2cc3cc(C(C)C)c(NS(=O)(=O)CCCF)cc3[nH]2)c1N` [Example 5-1-280, N-[2-[5-amino-1-[4-(2-fluorophenoxy)-2-methylphenyl]pyrazole-4-carbonyl]-5-propan-2-yl-1H-indol-6-yl]-3-fluoropropane-1-sulfonamide], the IC50 at human Lck enzyme was 31 nM; at human Src enzyme, 80 nM; on human Yes1 enzyme it was 1.8 nM.
With `CONS(=O)(=O)Nc1cc2[nH]c(C(=O)c3cnn(-c4ccc(Oc5ccccc5F)cc4C)c3N)cc2cc1F` [Example 4-5-009, [5-amino-1-[4-(2-fluorophenoxy)-2-methylphenyl]pyrazol-4-yl]-[5-fluoro-6-(methoxysulfamoylamino)-1H-indol-2-yl]methanone], the IC50 turned out to be 12 nM at human Lck enzyme (setting [1]), 35 nM at human Src enzyme (setting [1]) and 0.68 nM at human Yes1 enzyme (setting [1]).
For the compound `Cc1cc(Oc2ccccc2F)ccc1-n1ncc(C(=O)c2cc3cc(OCC(F)F)c(N4CCOC4=O)cc3[nH]2)c1N` [Example 4-21-003, 3-[2-[5-amino-1-[4-(2-fluorophenoxy)-2-methylphenyl]pyrazole-4-carbonyl]-5-(2,2-difluoroethoxy)-1H-indol-6-yl]-1,3-oxazolidin-2-one], the IC50 is 1.5 nM at human Lck enzyme (setting [1]), 2.4 nM on human Src enzyme (setting [1]) and 0.53 nM at human Yes1 enzyme (setting [1]).
Consider `Cc1cc(Oc2ccccc2F)ncc1-n1ncc(C(=O)c2cc3cc(OC(F)F)c(N4CCCS4(=O)=O)cc3[nH]2)c1N` [Example 4-25-004, [5-amino-1-[6-(2-fluorophenoxy)-4-methylpyridin-3-yl]pyrazol-4-yl]-[5-(difluoromethoxy)-6-(1,1-dioxo-1,2-thiazolidin-2-yl)-1H-indol-2-yl]methanone], for which the IC50 on human Lck enzyme (setting [1]) came out at 8.7 nM; at human Src enzyme (setting [1]), 48 nM; on human Yes1 enzyme (setting [1]), 1 nM.
For the compound `Cc1cc(Oc2c(F)cccc2F)ncc1-n1ncc(C(=O)c2cc3cc(F)c(N4C(=O)NC(C)(C)C4=O)cc3[nH]2)c1N` [Example 5-1-114, 3-[2-[5-amino-1-[6-(2,6-difluorophenoxy)-4-methylpyridin-3-yl]pyrazole-4-carbonyl]-5-fluoro-1H-indol-6-yl]-5,5-dimethylimidazolidine-2,4-dione], the IC50 at human Lck enzyme is 1.1 nM; at human Src enzyme it was 41 nM; on human Yes1 enzyme, 1.7 nM.
Consider `Cc1cc(Oc2c(F)cccc2F)ncc1-n1ncc(C(=O)c2cc3cc(F)c(NS(=O)(=O)c4cncc(F)c4)cc3[nH]2)c1N` [Example 5-1-548, N-[2-[5-amino-1-[6-(2,6-difluorophenoxy)-4-methylpyridin-3-yl]pyrazole-4-carbonyl]-5-fluoro-1H-indol-6-yl]-5-fluoropyridine-3-sulfonamide], for which the IC50 was 78 nM on human Lck enzyme (setting [1]), 640 nM on human Src enzyme (setting [1]) and 7.6 nM at human Yes1 enzyme (setting [1]).
With `Cc1cc(Oc2c(F)cccc2F)ncc1-n1ncc(C(=O)c2cc3cc(F)c(NS(=O)(=O)c4cccc(F)n4)cc3[nH]2)c1N` [Example 5-1-518, N-[2-[5-amino-1-[6-(2,6-difluorophenoxy)-4-methylpyridin-3-yl]pyrazole-4-carbonyl]-5-fluoro-1H-indol-6-yl]-6-fluoropyridine-2-sulfonamide], the IC50 at human Lck enzyme (setting [1]) was found to be 82 nM; at human Src enzyme (setting [1]), 570 nM; on human Yes1 enzyme (setting [1]), 5.8 nM.
Turning to `CC(C)N1CCC(c2cc3cc(C(=O)c4cnn(-c5ccc(Oc6cccc(Cl)c6)cc5F)c4N)[nH]c3cc2F)CC1` [Example 5-1-003, [5-amino-1-[4-(3-chlorophenoxy)-2-fluorophenyl]pyrazol-4-yl]-[6-fluoro-5-(1-propan-2-ylpiperidin-4-yl)-1H-indol-2-yl]methanone], the results for the IC50 on human Lck enzyme, on human Src enzyme and at human Yes1 enzyme were 4.7 nM, 26 nM and 2 nM, respectively.
`Cc1cc(-n2ncc(C(=O)c3cc4cc(OC5CCN(C(C)C)CC5)c(-c5cccs5)cc4[nH]3)c2N)ccc1Oc1ccccc1F` [Example 5-1-238, [5-amino-1-[4-(2-fluorophenoxy)-3-methylphenyl]pyrazol-4-yl]-[5-(1-propan-2-ylpiperidin-4-yl)oxy-6-thiophen-2-yl-1H-indol-2-yl]methanone]: the IC50 at human Lck enzyme amounted to 340 nM; at human Src enzyme, 860 nM; at human Yes1 enzyme, 8.1 nM.
With `Cc1cc(Oc2c(F)cccc2F)ncc1-n1ncc(C(=O)c2cc3cc(OC(F)F)c(NS(=O)(=O)C4CC4)cc3[nH]2)c1N` [Example 4-24-010, N-[2-[5-amino-1-[6-(2,6-difluorophenoxy)-4-methylpyridin-3-yl]pyrazole-4-carbonyl]-5-(difluoromethoxy)-1H-indol-6-yl]cyclopropanesulfonamide], the IC50 is 36 nM at human Lck enzyme (setting [1]), 150 nM on human Src enzyme (setting [1]) and 4.3 nM on human Yes1 enzyme (setting [1]).
On to `Cc1cc(Oc2c(F)cccc2F)ncc1-n1ncc(C(=O)c2cc3cc(F)c(N4CC5(CCCC5)NS4(=O)=O)cc3[nH]2)c1N` [Example 5-1-399, [5-amino-1-[6-(2,6-difluorophenoxy)-4-methylpyridin-3-yl]pyrazol-4-yl]-[6-(2,2-dioxo-2λ6-thia-1,3-diazaspiro[4.4]nonan-3-yl)-5-fluoro-1H-indol-2-yl]methanone], for which the IC50 at human Lck enzyme (setting [1]) is 53 nM; at human Src enzyme (setting [1]), 250 nM; on human Yes1 enzyme (setting [1]), 5.7 nM.
Regarding `Cc1cc(Oc2c(F)cccc2Cl)ncc1-n1ncc(C(=O)c2cc3cc(F)c(NS(=O)(=O)C4CC4)cc3[nH]2)c1N` [Example 4-2-046, N-[2-[5-amino-1-[6-(2-chloro-6-fluorophenoxy)-4-methylpyridin-3-yl]pyrazole-4-carbonyl]-5-fluoro-1H-indol-6-yl]cyclopropanesulfonamide], the IC50 amounted to 48 nM on human Lck enzyme (setting [1]), 230 nM at human Src enzyme (setting [1]) and 12 nM on human Yes1 enzyme (setting [1]).
`Cc1cc(Oc2ccccc2F)ccc1-n1ncc(C(=O)c2cc3cc(F)c(NC(=O)C(F)(F)F)cc3[nH]2)c1N` [Example 5-1-029, N-[2-[5-amino-1-[4-(2-fluorophenoxy)-2-methylphenyl]pyrazole-4-carbonyl]-5-fluoro-1H-indol-6-yl]-2,2,2-trifluoroacetamide]: the figures for the IC50 on human Lck enzyme, on human Src enzyme and on human Yes1 enzyme were 13 nM, 17 nM and 0.73 nM, respectively.
